For orientation: EC50 means the midpoint of the concentration-response curve. One may read the residual activity as the signal under treatment as a percentage of the control signal.

From ChEMBL document CHEMBL5108050, “Discovery of a New Class of Uracil Derivatives as Potential Mixed Lineage Kinase Domain-like Protein (MLKL) Inhibitors” (J Med Chem, 2022) come the findings set out here.

The test system of one assay is HT-29. Put plainly: Anti-necroptic activity in human HT-29 cells assessed as inhibition of TSZ (TNFalpha, Smac mimetic and z-VAD-FMK) induced necroptosis incubated for 24 hrs by celltiter-glo luminescent cell viability assay. Type of assay: functional, cell-based. To be noted: HT-29, 24 h. Background: Cellular ATP, detected with luciferase, serves as a proxy for viable cell number.

The target in assay [1] is Receptor-interacting serine/threonine-protein kinase 3 (Homo sapiens) (UniProt Q9Y572). Put plainly: Inhibition of full length RIP3 (unknown origin) assessed as substrate phosphorylation using MBP and ATP as substrate at 10 uM preincubated for 15 mins followed by substrate addition and measured after 90 mins by ADP-Glo luminescence assay; values are per cent of control. To be noted: time 105.0 min. (In general: ADP-Glo first removes unused ATP, then detects ADP through luciferase.)

Assay [2] deals with T1, Receptor-interacting serine/threonine-protein kinase 1 (Homo sapiens) (UniProt Q13546).
T1 sequence (whole entry): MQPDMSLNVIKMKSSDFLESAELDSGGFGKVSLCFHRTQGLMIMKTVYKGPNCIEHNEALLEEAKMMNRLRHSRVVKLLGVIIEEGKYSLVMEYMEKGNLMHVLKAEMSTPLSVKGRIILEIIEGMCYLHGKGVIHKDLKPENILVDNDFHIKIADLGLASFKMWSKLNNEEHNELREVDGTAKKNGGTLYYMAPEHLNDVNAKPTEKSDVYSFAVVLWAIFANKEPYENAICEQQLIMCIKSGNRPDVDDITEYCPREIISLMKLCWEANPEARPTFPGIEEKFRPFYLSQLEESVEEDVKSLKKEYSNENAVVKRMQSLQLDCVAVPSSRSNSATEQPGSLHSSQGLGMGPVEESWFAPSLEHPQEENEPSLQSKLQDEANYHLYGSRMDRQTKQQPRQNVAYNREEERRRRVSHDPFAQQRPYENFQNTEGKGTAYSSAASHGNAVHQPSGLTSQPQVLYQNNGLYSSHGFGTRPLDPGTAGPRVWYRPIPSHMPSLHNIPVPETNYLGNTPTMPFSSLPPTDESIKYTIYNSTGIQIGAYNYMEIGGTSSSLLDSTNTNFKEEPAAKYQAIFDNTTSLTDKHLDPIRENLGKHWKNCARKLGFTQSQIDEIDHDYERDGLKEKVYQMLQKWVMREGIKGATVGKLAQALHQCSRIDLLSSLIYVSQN
The assay can be described thus: Inhibition of RIP1 (1 to 375 residues) (unknown origin) assessed as substrate phosphorylation using MBP and ATP as substrate at 10 uM preincubated for 15 mins followed by substrate addition and measured after 90 mins by ADP-Glo luminescence assay; values are per cent of control. To be noted: time 105.0 min.

In assay [3] the target is T1, Receptor-interacting serine/threonine-protein kinase 1 (Homo sapiens). The assay can be described thus: Inhibition of RIP1 (1 to 375 residues) (unknown origin) assessed as substrate phosphorylation using MBP and ATP as substrate at 1 uM preincubated for 15 mins followed by substrate addition and measured after 90 mins by ADP-Glo luminescence assay; values are per cent of control. To be noted: time 105.0 min.

Assay [4] deals with Receptor-interacting serine/threonine-protein kinase 3 (Homo sapiens) (UniProt Q9Y572). The assay can be described thus: Inhibition of full length RIP3 (unknown origin) assessed as substrate phosphorylation using MBP and ATP as substrate at 1 uM preincubated for 15 mins followed by substrate addition and measured after 90 mins by ADP-Glo luminescence assay; values are per cent of control. To be noted: time 105.0 min.

Receptor-interacting serine/threonine-protein kinase 3 (Homo sapiens), sequence (Q9Y572 whole entry, looked up): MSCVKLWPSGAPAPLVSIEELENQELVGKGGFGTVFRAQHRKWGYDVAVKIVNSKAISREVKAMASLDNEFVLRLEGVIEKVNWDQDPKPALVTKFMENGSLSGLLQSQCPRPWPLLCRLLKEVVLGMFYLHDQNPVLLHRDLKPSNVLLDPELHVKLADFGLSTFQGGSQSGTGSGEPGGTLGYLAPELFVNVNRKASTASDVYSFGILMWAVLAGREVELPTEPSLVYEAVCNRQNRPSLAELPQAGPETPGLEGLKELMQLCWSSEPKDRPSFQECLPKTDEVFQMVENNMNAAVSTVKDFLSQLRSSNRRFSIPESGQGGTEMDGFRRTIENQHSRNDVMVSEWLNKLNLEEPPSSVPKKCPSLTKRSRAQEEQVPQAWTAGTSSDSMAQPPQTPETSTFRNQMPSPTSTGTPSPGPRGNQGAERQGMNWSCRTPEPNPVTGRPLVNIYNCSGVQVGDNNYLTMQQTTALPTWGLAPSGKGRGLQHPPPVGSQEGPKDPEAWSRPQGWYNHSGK

On to `Cn1c(=O)c(NC(=O)Cc2ccc(F)cc2)c(Cl)n(CC#Cc2cccc(O)c2)c1=O`, for which the EC50 in the assay on HT-29 was 4600 nM.
`CCCn1c(=O)c(NC(=O)CCc2ccc(C)cc2)c(Cl)n(CC#Cc2ccc(O)cc2)c1=O`: the EC50 in the assay on HT-29 was 1020 nM.
The same measure, in the same setting: under `Cn1c(=O)c(NC(=O)CC(C)(C)C)c(Cl)n(CC#Cc2cccc(O)c2)c1=O` stands 5280 nM.
Regarding `COc1cccn(Cc2cc(C#CCn3c(Cl)c(NC(=O)CCc4ccc(C)cc4)c(=O)n(C)c3=O)ccc2F)c1=O`, the EC50 in the assay on HT-29 amounted to 91 nM.
Still for that read-out and setting: under `Cn1c(=O)c(NC(=O)CCc2ccc(C#N)cc2)c(Cl)n(CC#Cc2cccc(O)c2)c1=O` stands 639 nM.
On to `Cc1ccc(CCC(=O)Nc2c(Cl)n(CC#Cc3cccc(O)c3)c(=O)n(C)c2=O)cc1`, for which the EC50 in the assay on HT-29 stood at 316 nM.
Same read-out and setting: under `Cc1ccc(CCC(=O)Nc2c(Cl)n(CC#Cc3cccc(NC(=O)c4ccccc4)c3)c(=O)n(C)c2=O)cc1` stands 1000 nM; under `Cn1c(=O)c(NC(=O)Cc2ccccc2F)c(Cl)n(CC#Cc2cccc(O)c2)c1=O`, 3350 nM.
For the molecule `CCC(=O)Nc1c(Cl)n(CC#Cc2cccc(O)c2)c(=O)n(C)c1=O`, the concentration giving a half-maximal response (EC50) in the assay on HT-29 was found to be 3380 nM.
As for `Cn1c(=O)c(NC(=O)CCc2ccccc2)c(Cl)n(CC#Cc2cccc(O)c2)c1=O`, the EC50 in the assay on HT-29 is 1070 nM.
Still for that read-out and setting: under `C=CC(=O)Nc1cn(CC#Cc2cccc(O)c2)c(=O)n(C)c1=O` stands greater than 10000 nM.
The same measure, in the same setting: under `C=CS(=O)(=O)Nc1c(Cl)n(CC#Cc2cccc(O)c2)c(=O)n(C)c1=O` stands 5680 nM.
As for `Cn1c(=O)c(NC(=O)CCc2cccc(F)c2)c(Cl)n(CC#Cc2cccc(O)c2)c1=O`, the concentration for a half-maximal effect (EC50) in the assay with HT-29 worked out at 6300 nM.
Same read-out and setting: under `CCCCCCCC(=O)Nc1c(Cl)n(CC#Cc2cccc(O)c2)c(=O)n(C)c1=O` stands 2340 nM.
`Cc1ccc(CCC(=O)Nc2c(Cl)n(CC#Cc3ccc(Cl)c(Cn4ccccc4=O)c3)c(=O)n(C)c2=O)cc1`: the EC50 with HT-29 amounted to 110 nM.
With `C=CC(=O)Nc1c(OC)n(CC#Cc2cccc(O)c2)c(=O)n(C)c1=O`, the EC50 in the assay on HT-29 was greater than 10000 nM.
In the case of `COc1ccc(C#CCn2c(Cl)c(NC(=O)CCc3ccc(C)cc3)c(=O)n(C)c2=O)cc1`, the EC50 with HT-29 amounted to 3390 nM.
Turning to `C=CC(=O)Nc1c(C)n(CC#Cc2cccc(O)c2)c(=O)n(C)c1=O`, the concentration giving a half-maximal response (EC50) in the assay on HT-29 is greater than 10000 nM.
The same measure, in the same setting: under `C#CCn1c(Cl)c(NC(=O)CCc2ccc(C)cc2)c(=O)n(C)c1=O` stands 7240 nM; under `C=CS(=O)(=O)Nc1c(C)n(CC#Cc2cccc(O)c2)c(=O)n(C)c1=O`, greater than 10000 nM.
Same read-out and setting: under `CC(=O)Nc1cccc(C#CCn2c(Cl)c(NC(=O)CCc3ccc(C)cc3)c(=O)n(C)c2=O)c1` stands 870 nM.
For the molecule `Cc1ccc(CCC(=O)Nc2c(Cl)n(CC#Cc3cccc(Cn4ccc(C)cc4=O)c3)c(=O)n(C)c2=O)cc1`, the half-maximal effective concentration (EC50) with HT-29 was found to be 106 nM.
Same read-out and setting: under `Cc1ccc(CCC(=O)Nc2c(Cl)n(CC#Cc3ccc(O)cc3)c(=O)n(CC3CCCC3)c2=O)cc1` stands greater than 10000 nM; under `CCc1ccc(CCC(=O)Nc2c(Cl)n(CC#Cc3cccc(O)c3)c(=O)n(C)c2=O)cc1`, 998 nM.
Regarding `Cc1ccc(CCC(=O)Nc2c(Cl)n(CC#Cc3ccc(NCc4ccccc4)cc3)c(=O)n(C)c2=O)cc1`, the EC50 in the assay on HT-29 was 2020 nM.
For the molecule `Cn1c(=O)c(NC(=O)CCc2ccc(F)cc2)c(Cl)n(CC#Cc2cccc(O)c2)c1=O`, the EC50 with HT-29 came out at 455 nM.
In the case of `C=CS(=O)(=O)Nc1cn(CC#Cc2cccc(O)c2)c(=O)n(C)c1=O`, the EC50 in the assay on HT-29 was 2480 nM.
As to `Cc1ccc(CCC(=O)Nc2c(Cl)n(CC#Cc3cccc(Cn4c(C)cccc4=O)c3)c(=O)n(C)c2=O)cc1`, in the assay with HT-29, the concentration for a half-maximal effect (EC50) is 122 nM.
Take `Cc1ccc(CCC(=O)Nc2c(Cl)n(CC#Cc3ccc4c(c3)CCC(=O)N4)c(=O)n(C)c2=O)cc1`: the residual activity amounted to 90.5% in assay [1], 94.5% in assay [2], 109% in assay [3] and 102% in assay [4]. Moreover, the concentration giving a half-maximal response (EC50) in the assay with HT-29 was determined as 132 nM.
As to `Cn1c(=O)c(NC(=O)Cc2cccc(F)c2)c(Cl)n(CC#Cc2cccc(O)c2)c1=O`, in the assay with HT-29, the concentration giving a half-maximal response (EC50) was found to be 2320 nM.
On to `Cc1ccc(CCC(=O)Nc2c(Cl)n(CC#Cc3ccc(F)c(Cn4ccccc4=O)c3)c(=O)n(C)c2=O)cc1`, for which the 50% effective concentration (EC50) in the assay on HT-29 was determined as 139 nM.
Still for that read-out and setting: under `Cn1c(=O)c(NC(=O)CCc2ccc(Cl)cc2)c(Cl)n(CC#Cc2cccc(O)c2)c1=O` stands 540 nM.
Regarding `Cc1ccc(CCC(=O)Nc2c(Cl)n(CC#Cc3cccc(N)c3)c(=O)n(C)c2=O)cc1`, the concentration giving a half-maximal response (EC50) in the assay with HT-29 amounted to 1060 nM.
Regarding `Cc1ccc(CCC(=O)Nc2c(Cl)n(CC#Cc3cccc(Cn4cc(C)ccc4=O)c3)c(=O)n(C)c2=O)cc1`, in the assay on HT-29, the concentration giving a half-maximal response (EC50) was found to be 158 nM.
For the molecule `Cc1ccc(CCC(=O)Nc2c(Cl)n(CC#Cc3ccc(N)cc3)c(=O)n(C)c2=O)cc1`, the 50% effective concentration (EC50) with HT-29 amounted to 1020 nM.
As for `CCC(C)C(=O)Nc1c(Cl)n(CC#Cc2cccc(O)c2)c(=O)n(C)c1=O` (stereo not given), the EC50 in the assay with HT-29 was determined as 1740 nM.
The same measure, in the same setting: under `CCC(C)(C)C(=O)Nc1c(Cl)n(CC#Cc2cccc(O)c2)c(=O)n(C)c1=O` stands greater than 10000 nM.
`COc1cccn(Cc2cc(C#CCn3c(Cl)c(NC(=O)CCc4ccc(C)cc4)c(=O)n(C)c3=O)ccc2Cl)c1=O`: in the assay with HT-29, the 50% effective concentration (EC50) was 90 nM.
Still for that read-out and setting: under `C=CS(=O)(=O)Nc1c(OC)n(CC#Cc2cccc(O)c2)c(=O)n(C)c1=O` stands greater than 10000 nM.
Take `COc1ccc(CC(=O)Nc2c(Cl)n(CC#Cc3cccc(O)c3)c(=O)n(C)c2=O)cc1`: the 50% effective concentration (EC50) with HT-29 amounted to 1400 nM.
Take `Cn1c(=O)c(NC(=O)/C=C/c2ccccc2)c(Cl)n(CC#Cc2cccc(O)c2)c1=O`: in the assay on HT-29, the concentration for a half-maximal effect (EC50) was greater than 10000 nM.
The same measure, in the same setting: under `Cc1ccc(CCC(=O)Nc2c(Cl)n(CC#Cc3cccc(Cn4cccc(C)c4=O)c3)c(=O)n(C)c2=O)cc1` stands 134 nM.
Same read-out and setting: under `COc1ccn(Cc2cccc(C#CCn3c(Cl)c(NC(=O)CCc4ccc(C)cc4)c(=O)n(C)c3=O)c2)c(=O)c1` stands 93 nM; under `Cc1ccc(CCC(=O)Nc2c(Cl)n(CC#Cc3ccc4c(c3)CCC(=O)N4C)c(=O)n(C)c2=O)cc1`, 281 nM; under `COc1ccc(C#CCn2c(Cl)c(NC(=O)CCc3ccc(C)cc3)c(=O)n(C)c2=O)cc1Cn1ccccc1=O`, 85 nM.
Still for that read-out and setting: under `Cn1c(=O)c(NC(=O)Cc2ccc(Cl)cc2)c(Cl)n(CC#Cc2cccc(O)c2)c1=O` stands 3770 nM; under `Cc1ccc(CCC(=O)Nc2c(Cl)n(CC#Cc3cccc(Cn4ccccc4=O)c3)c(=O)n(C)c2=O)cc1`, 136 nM.
`Cc1ccc(CCC(=O)Nc2c(Cl)n(CC#Cc3ccc(Cn4ccccc4=O)cc3)c(=O)n(C)c2=O)cc1`: the concentration giving a half-maximal response (EC50) in the assay on HT-29 stood at 168 nM.
On the same count and under the same terms, under `Cn1c(=O)c(NC(=O)CCCc2ccccc2)c(Cl)n(CC#Cc2cccc(O)c2)c1=O` stands greater than 10000 nM; under `Cc1ccc(CCC(=O)Nc2c(Cl)n(CC#Cc3ccc4c(c3)CCC(=O)O4)c(=O)n(C)c2=O)cc1`, 113 nM.
On the same count and under the same terms, under `Cc1ccc(CCC(=O)Nc2c(Cl)n(CC#Cc3ccc(NC(=O)c4ccccc4)cc3)c(=O)n(C)c2=O)cc1` stands 214 nM; under `COc1cccn(Cc2cccc(C#CCn3c(Cl)c(NC(=O)CCc4ccc(C)cc4)c(=O)n(C)c3=O)c2)c1=O`, 82 nM.
On the same count and under the same terms, under `Cn1c(=O)c(NC(=O)CCc2ccccc2F)c(Cl)n(CC#Cc2cccc(O)c2)c1=O` stands 829 nM.
Turning to `Cc1ccc(CCC(=O)Nc2c(Cl)n(CC#Cc3ccc4[nH]ccc4c3)c(=O)n(C)c2=O)cc1`, in the assay with HT-29, the 50% effective concentration (EC50) amounted to 332 nM.
With `Cc1ccc(CCC(=O)Nc2c(Cl)n(CC#Cc3ccc4cc[nH]c4c3)c(=O)n(C)c2=O)cc1`, the EC50 in the assay on HT-29 stood at 727 nM.
Consider `Cc1ccc(CCC(=O)Nc2c(Cl)n(CC#Cc3ccccc3)c(=O)n(C)c2=O)cc1`, for which the EC50 with HT-29 amounted to 1990 nM.
On to `CC(=O)Nc1ccc(C#CCn2c(Cl)c(NC(=O)CCc3ccc(C)cc3)c(=O)n(C)c2=O)cc1`, for which the EC50 with HT-29 worked out at 717 nM.
Same read-out and setting: under `COCCOCC(=O)Nc1c(Cl)n(CC#Cc2cccc(O)c2)c(=O)n(C)c1=O` stands 4270 nM.
Still for that read-out and setting: under `CCn1c(=O)c(NC(=O)CCc2ccc(C)cc2)c(Cl)n(CC#Cc2ccc(O)cc2)c1=O` stands 2220 nM.
Turning to `Cn1c(=O)c(NC(=O)c2ccccc2)c(Cl)n(CC#Cc2cccc(O)c2)c1=O`, the concentration giving a half-maximal response (EC50) in the assay on HT-29 is greater than 10000 nM.
Same read-out and setting: under `Cn1c(=O)c(NC(=O)Cc2ccccc2)c(Cl)n(CC#Cc2cccc(O)c2)c1=O` stands 1490 nM.
